The values below come from patent publication US6593343B2, “Quinoline derivatives” (Active Biotech AB, priority 1998, dated 2003).

The structures appear in SMILES notation.

Series [1] deals with fetuses of female rats. Description: Teratogenic effects in the rat. The format is in vivo.
Series [2] deals with acute experimental autoimmune encephalomyelitis (aEAE). Description: Acute experimental autoimmune encephalomyelitis (aEAE) inhibition. The format is in vivo. As to conditions: at ≧5 mg/kg, mice, treatment control.
For another series, the system named is beagle dogs. Briefly: Beagle Pain Syndrome (BPS). The format is in vivo, dog. As for the experimental part: Beagle Pain Syndrome (BPS)
The compounds were administrated intravenously to beagle dogs. The dosage was given for five consecutive days. The dogs were evaluated for clinical and laboratory signs of the pain syndrome, e.g. fever, increased erythrocyte sedimentation rate (ESR), alkaline phosphate (AP), induction of acute phase proteins and vasculitis.

The test system of series [3] is fetuses of female rats. Particulars: rat, background statement; cited from earlier work.
For series [4] the following is noted: e.g. a flu-like syndrome; cited from earlier work.

For `COc1cccc2c1c(O)c(C(=O)N(C)c1ccc(C(F)(F)F)cc1)c(=O)n2C` [Compound A, N-methyl-N-(4-trifluoromethyl-phenyl)-1,2-dihydro-4-hydroxy-5-methoxy-1-methyl-2-oxo-quinoline-3-carboxamide], the “% malformed fetuses” value in the series on fetuses of female rats [1] (6 mg/kg p.o.) is reported as 4%; in the series on fetuses of female rats [1] (30 mg/kg p.o.) it was 2%.
As to `CN(C(=O)c1c(O)c2c(Cl)cccc2n(C)c1=O)c1ccc(F)cc1F` [Compound B, N-methyl-N-(2,4-difluoro-phenyl)-1,2-dihydro-4-hydroxy-5-chloro-1-methyl-2-oxo-quinoline-3-carboxamide], the “% malformed fetuses” value in the series with fetuses of female rats [1] (6 mg/kg p.o.) is given as 0%.
On to `CN(C(=O)c1c(O)c2c(Cl)cccc2n(C)c1=O)c1ccccc1` [Compound C, N-Methyl-N-phenyl-1,2-dihydro-4-hydroxy-5-chloro-1-methyl-2-oxo-quinoline-3-carboxamide], for which the “% malformed fetuses” value in the series with fetuses of female rats [1] (6 mg/kg p.o.) is 37%.
With `CN(C(=O)c1c(O)c2ccccc2n(C)c1=O)c1ccccc1` [Compound D, N-phenyl-N-methyl-1,2-dihydro-4-hydroxy-1-methyl-2-oxo-quinoline-3-carboxamide], the “inhibition of aEAE” value in series [2] is “more than 50%”. The “% malformed fetuses” value is recorded as 9% in the series with fetuses of female rats [1] (10 mg/kg p.o.) and 30% in the series with fetuses of female rats [1] (30 mg/kg p.o.). Also, in the series with beagle dogs, the “Beagle Pain Syndrome (in words)” value is given as “induce the Beagle Pain Syndrome”. Besides, the “teratogenicity (in words)” value in the series on fetuses of female rats [3] is listed as “teratogenic in the rat”. The “side effects in man (in words)” value in series [4] is “dose-limiting side effects”.
